{"source": "paper PMC9145754", "about": "“Novel Soloxolone Amides as Potent Anti-Glioblastoma Candidates: Design, Synthesis, In Silico Analysis and Biological Activities In Vitro and In Vivo” (Pharmaceuticals, 2022)", "key": {"U118 glioblastoma cells": {"system": "U118 glioblastoma cells", "test": "Annexin V-APC/PI apoptosis assay, U118", "assay_type": "cell-based, human", "conditions": "for apoptosis, % of U118 cells: 12 at 4 µM", "protocol": "To quantify the percentage of cells undergoing apoptosis, glioblastoma U87 and U118 cells were seeded in 6-well plates at 2.8 × 10^5 cells/well in complete growth medium and incubated at standard conditions overnight followed by treatment with 12 at 4 µM for 24 h. Thereafter, the cells were harvested by trypsinization (TrypLE Express (Gibco, USA)) and centrifugation at 400 g for 5 min, washed with PBS and stained with 5 µL of Annexin V-APC (Sony Biotechnology Inc., San Jose, CA, USA) and 10 µL of propidium iodide (PI) (Invitrogen, Waltham, MA, USA) for 15 min at room temperature in the dark. After the incubation time, the cells were analyzed using a NovoCyte Flow Cytometer (ACEA Biosciences Inc., San Diego, CA, USA). For each sample, 10,000 events were acquired."}, "HeLa cells": {"system": "HeLa cells", "test": "MTT cytotoxicity assay, HeLa", "assay_type": "cell-based", "conditions": "Homo sapiens, 24 h, read-out: IC50, Cervix, HeLa", "protocol": "In the first step of the study, we analyzed the cytotoxicity of novel soloxolone derivatives 1–12 in a panel of tumor cells, including human cervical carcinoma HeLa, human duodenal carcinoma HuTu-80 and murine melanoma B16 cells, as well as human non-transformed hFF3 foreskin fibroblasts. The cells were treated with derivatives for 24 h and cell viability was evaluated by 3-(4,5-dimethylthiazol-2-yl)-2,5-diphenyltetrazolium bromide (MTT) assay. SM was used as the reference compound.\n(§1) The cells in the exponential growth phase were seeded in quadruplicate in 96-well plates at a density of 1 × 10^4 cells/well for HeLa, U87, U118, KELLY and Neuro2a cells; 1.5 × 10^4 cells/well for HuTu-80 cells; 2 × 10^4 cells/well for B16 cells; and 7 × 10^3 cells/well for hFF3 fibroblasts. Cells were incubated under standard conditions overnight followed by their treatment with the investigated compounds (1–20 µM) for 24 h. Then, 10 µL of MTT solution was added to the cells to a final concentration of 0.5 mg/mL and plates were placed under standard conditions for 3 h followed by an aspiration of MTT-containing medium and a dissolution of formazan crystals with 100 µL of DMSO. The absorbance of each well was read at test and reference wavelengths of 570 and 620 nm, respectively, on a Multiscan RC plate reader (Thermo LabSystems, Helsinki, Finland)."}, "U87 cells [1]": {"system": "U87 cells", "test": "Vasculogenic mimicry on Matrigel", "assay_type": "cell-based, human", "conditions": "12 at 200 nM, 5 h", "protocol": "Considering that vasculogenic mimicry (VM), a process whereby tumor cells form tumor cell-lined vasculatures to reinforce blood supply to cancerous tissue, plays a crucial role in glioblastoma progression and aggressiveness and that some pentacyclic triterpenoids can inhibit this process, next we studied whether 12 affects VM in glioblastoma cells.\nA 96-well plate was placed on ice for pre-cooling and Matrigel®® Matrix (Corning, Corning, NY, USA) was thawed at 4 °C and added to each well of the plate (50 μL/well). Then, the plate was placed at 37 °C in 5% CO2 for 1 h to solidify the Matrigel. U87 cells were seeded at 2 × 10^4 cells/well on the Matrigel-coated wells and treated with 12 at 200 nM for 5 h. At the end of the incubation time, each well was analyzed under a microscope with a phase contrast Primo Vert (ZEISS, Germany). Tubular structures in each field were imaged with a AxioCam ERc5s camera (ZEISS, Germany) and the average number of tubules from three to four random fields in each well was quantified by ImageJ. The experiment was performed in triplicate."}, "U87 cells [2]": {"system": "U87 cells", "test": "Colony formation assay, U87", "assay_type": "cell-based, human", "conditions": "for decrease of surface area covered by cell colonies compared to the control: 14 days"}, "U87 cells [3]": {"system": "U87 cells", "test": "Cytotoxicity of 12 with chloroquine (MTT)", "assay_type": "cell-based", "conditions": "U87, 12 with chloroquine 50 µM, 24 h", "protocol": "(§2) Given that pentacyclic triterpenoids can induce tumor cell death not only by the apoptotic pathway but also by triggering autophagy, we next studied whether 12 stimulated autophagy in glioblastoma cells. For this, U87 and U118 cells were incubated with tryptamide 12 at toxic concentrations (2 or 4 µM) for 24 h followed by cell staining with monodansylcadaverine (MDC), a fluorescent dye specifically labeling autophagosomes. […] Considering that autophagy can be associated not only with cell death but also with cytoprotection, its role in the cytotoxicity of 12 in glioblastoma cells was further studied.\nIn order to evaluate whether autophagy plays an important role in compound 12-induced glioblastoma cell death, U87 cells were seeded in quadruplicate at a density of 1 × 10^4 cells/well in 96-well plates, incubated overnight under standard conditions and co-treated with 12 at 1–5 μM and chloroquine (CQ) at 50 μM for 24 h. Then, cell viability was measured using an MTT test and the curves of cytotoxicity of 12 in the presence or absence of CQ were compared."}, "U118 cells [4]": {"system": "U118 cells", "test": "Autophagy, MDC staining, U118", "assay_type": "cell-based, human", "conditions": "24 h", "protocol": "as §2\nTo evaluate the ability of 12 to induce autophagy, U87 and U118 cells were seeded at 2.8 × 10^5 cells/well in 6-well plates and incubated under standard conditions overnight followed by their treatment with 12 in amounts of 2 and 4 μM for 24 h. Then, the cells were collected and washed with PBS as described above and resuspended in 500 µL of PBS containing monodancylcadaverine (MDC) at 50 μM. After incubation for 15 min under standard conditions, the cells were washed with PBS and analyzed by flow cytometry. For each sample, 10,000 events were acquired."}, "Neuro2a cells": {"system": "Neuro2a cells", "test": "MTT cytotoxicity assay, Neuro2a", "assay_type": "cell-based, murine", "conditions": "Mus musculus, N2a, 24 h, read-out: IC50, Neuroblastoma, Neuro2a", "protocol": "(§3) To evaluate the antitumor activity of the synthesized soloxolone amides in brain tumor cells, the cytotoxicity of compounds 4–12, predicted as BBB-permeable (Figure 3), was further analyzed in human glioblastoma U87 and U118 cells, as well as human neuroblastoma KELLY and murine neuroblastoma Neuro2a cells.\nas §1"}, "caspase-3 and -7": {"system": "caspase-3 and -7", "test": "Caspase-3/-7 activation (CellEvent reagent, flow cytometry)", "assay_type": "cell-based, human", "conditions": "U87 cells", "protocol": "To double check the pro-apoptotic activity of 12, its effect on the activation of executioner caspase-3 and -7, key markers of apoptosis, was evaluated in glioblastoma U87 cells.\nU87 cells were plated at a density of 2.8 × 10^5 cells/well in 6-well plates and treated with 12 at 2 and 4 μM for 6 and 24 h. Then, the cells were collected by trypsinization and centrifugation, washed with PBS and stained with CellEvent™ Caspase-3/7 Green ReadyProbes™ Reagent (Molecular Probes, Eugene, OR, USA) according to the manufacturer’s manual. Briefly, harvested cells were resuspended in 200 μL of PBS containing the reagent (1 drop/mL) and incubated for 30 min at room temperature. After that, flow cytometry analysis of the cells was performed using the NovoCyte Flow Cytometer. In total, 10,000 events were acquired for each sample."}, "U118 cells [5]": {"system": "U118 cells", "test": "MTT cytotoxicity assay, U118", "assay_type": "cell-based", "conditions": "Homo sapiens, 24 h, read-out: IC50, Glioblastoma, U118", "protocol": "as §3, §1"}}, "data": [{"smiles": "CC1(C)C(=O)C(C#N)=C[C@]2(C)C3=CC(=O)[C@@H]4[C@@H]5C[C@@](C)(C(=O)NCCc6c[nH]c7ccccc67)CC[C@]5(C)CC[C@@]4(C)[C@]3(C)CC[C@@H]12", "note": "[compound 12]", "values": [{"measurement": "apoptosis, % of U118 cells", "setting": "U118 glioblastoma cells; 6 h", "value": 11.7, "unit": "%"}, {"measurement": "apoptosis, % of U118 cells", "setting": "U118 glioblastoma cells; 18 h", "value": 34.4, "unit": "%"}, {"measurement": "apoptosis, % of U118 cells", "setting": "U118 glioblastoma cells; 24 h", "value": 41.5, "unit": "%"}, {"measurement": "number of necrotic cells", "setting": "U118 glioblastoma cells; U118, different samples (2 and 4 µM; 6–24 h)", "value": "≤ 10", "unit": "%"}, {"measurement": "IC50", "setting": "HeLa cells", "value": "1.5 ± 0.1", "unit": "µM"}, {"measurement": "decrease in numbers of tubular structures compared with untreated cells", "setting": "U87 cells [1]", "value": 2.2, "unit": "fold"}, {"measurement": "decrease of surface area covered by cell colonies compared to the control", "setting": "U87 cells [2]; U87, 12 at 200 nM", "value": 2.1, "unit": "fold"}, {"measurement": "decrease of surface area covered by cell colonies compared to the control", "setting": "U87 cells [2]; U87, 12 at 500 nM", "value": 2.4, "unit": "fold"}, {"measurement": "inhibitory effect on clonogenic growth", "setting": "U87 cells [2]; U87, 12 at 50 and 100 nM", "value": "statistically insignificant"}, {"measurement": "effect of chloroquine on cytotoxic activity of 12", "setting": "U87 cells [3]", "value": "did not affect the cytotoxic activity"}, {"measurement": "MDC-positive cells, U118", "setting": "U118 cells [4]; 12 at 2 µM", "value": 8.55, "unit": "%"}, {"measurement": "MDC-positive cells, U118", "setting": "U118 cells [4]; 12 at 4 µM", "value": 8.02, "unit": "%"}, {"measurement": "IC50", "setting": "Neuro2a cells", "value": "1.6 ± 0.1", "unit": "µM"}, {"measurement": "activation of caspase-3 and -7", "setting": "caspase-3 and -7", "value": "effectively activated caspase-3 and -7 in a time-dependent manner"}, {"measurement": "IC50", "setting": "U118 cells [5]", "value": "1.9 ± 0.2", "unit": "µM"}]}]}
